The subject of test [1] is Jurkat HIV-luciferase clones. Briefly: Jurkat latency reversal assay. The format is cell-based. Conditions: Homo sapiens, 48 h; Jurkat latency reversal assay potency; read-out: Jurkat pEC50 (converted). In outline: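 Compounds are titrated 3-fold over 14 points from 10 μM in duplicate at 0.5% DMSO. Clones C16, 115 and N6, grown with 500 nM EFV, are co-incubated for 48 h at 37° C. Virally driven luciferase is read by luminescence, and EC50 and maximal percent activation versus vehicle come from a four-parameter model.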

For test [2], the target named is cIAP1-BIR3 (Homo sapiens (Human), UniProt Q13490). Briefly: BIR binding assay (FRET competition), cIAP1 BIR3. To be noted: for cIAP1 BIR3 vs BIR2 separation window: fold separation (FS) for cIAP1. In outline:
(§1)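 His-tagged domains (50 nM cIAP1-BIR3, 325 nM cIAP2-BIR2, 325 nM cIAP1-BIR2, 100 nM XIAP-BIR3) compete with compounds for a 200 nM AlexaFluor647-labelled SMAC/DIABLO peptide in HEPES buffer, pH 7.4, for 60 min. Then 2 nM Eu-W1024 is added for 30 min. The 615/665 nm ratio is fit by four-parameter fit to give IC50.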

For test [3], the target named is cIAP1-BIR2 (Homo sapiens (Human), UniProt Q13490). Briefly: BIR binding assay (FRET competition), cIAP1 BIR2. In a few lines:
as §1

The target of test [4] is cIAP2-BIR3 (Homo sapiens (Human), UniProt Q13489). Briefly: BIR binding assay (FRET competition), cIAP2 BIR3. Conditions: for cIAP2 BIR3 vs BIR2 separation window: fold separation (FS) for cIAP2.
For test [5], the target named is cIAP2-BIR2 (Homo sapiens (Human), UniProt Q13489). Briefly: BIR binding assay (FRET competition), cIAP2 BIR2. In outline:
as §1

Test [6] has as its target XIAP-BIR3 (Homo sapiens (Human), UniProt P98170). Briefly: BIR binding assay (FRET competition), XIAP BIR3. To be noted: for XIAP BIR3 vs BIR2 separation window: fold separation (FS) for XIAP. In outline:
as §1

In test [7] the target is XIAP-BIR2 (Homo sapiens (Human), UniProt P98170). Briefly: BIR binding assay (FRET competition), XIAP BIR2. Conditions: FRET competition binding; for IC50: read-out: XIAP BIR2 (pIC50) (converted). In outline:
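Compounds in a 15-point, 3-fold series competed with an AlexaFluor647 SMAC peptide (AVPIAQKSE, 200 nM) for 200 nM His-tagged XIAP-BIR2 over 60 min in pH 7.4 HEPES/CHAPS/DTT buffer. Eu-W1024 (2 nM) was then added for 30 min. IC50 and pIC50 were derived from the 615 nm/665 nm emission ratio by variable-slope fit.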

The structures appear in SMILES notation.

Chain of cIAP1-BIR3 (Q13490 253-363): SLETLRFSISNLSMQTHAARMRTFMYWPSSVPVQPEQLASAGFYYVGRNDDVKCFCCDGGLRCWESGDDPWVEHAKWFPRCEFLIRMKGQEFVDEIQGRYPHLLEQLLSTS
Chain of cIAP1-BIR2 (Q13490 173-257): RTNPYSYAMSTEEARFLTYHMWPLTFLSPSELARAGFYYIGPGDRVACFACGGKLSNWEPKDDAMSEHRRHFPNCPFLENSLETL
Chain of cIAP2-BIR2 (Q13489 158-242): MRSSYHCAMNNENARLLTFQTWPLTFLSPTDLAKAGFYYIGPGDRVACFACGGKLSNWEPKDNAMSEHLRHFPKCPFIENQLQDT
Chain of cIAP2-BIR3 (Q13489 238-349): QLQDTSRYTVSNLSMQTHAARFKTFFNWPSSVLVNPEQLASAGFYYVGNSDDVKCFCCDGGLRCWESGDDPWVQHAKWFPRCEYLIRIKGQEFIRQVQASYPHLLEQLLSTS
Chain of XIAP-BIR2 (P98170 124-240): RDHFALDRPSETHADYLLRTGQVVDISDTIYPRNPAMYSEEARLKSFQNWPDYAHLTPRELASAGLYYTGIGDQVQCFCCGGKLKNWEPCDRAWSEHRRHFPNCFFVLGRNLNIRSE
Chain of XIAP-BIR3 (P98170 241-356): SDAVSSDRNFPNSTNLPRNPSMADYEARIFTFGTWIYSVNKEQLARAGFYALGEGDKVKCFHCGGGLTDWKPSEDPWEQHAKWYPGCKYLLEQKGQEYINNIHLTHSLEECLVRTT

Regarding `C[C@@H]1CN(CC(=O)N2CC(C)(C)c3[nH]c(=O)c(Cc4ccc(F)cc4)cc32)[C@@H](CN2CCC(CC(=O)NCc3ccc(CNC(=O)CC4CCN(C[C@H]5CN[C@H](C)CN5CC(=O)N5CC(C)(C)c6[nH]c(=O)c(Cc7ccc(F)cc7)cc65)CC4)cc3)CC2)CN1` [Example 105, N,N′-(1,4-phenylenebis(methylene))bis(2-(1-(((2R,5R)-1-(2-(6-(4-fluorobenzyl)-3,3-dimethyl-5-oxo-2,3,4,5-tetrahydro-1H-pyrrolo[3,2-b]pyridin-1-yl)-2-oxoethyl)-5-methylpiperazin-2-yl)methyl)piperidin-4-yl)acetamide)], the EC50 in test [1] was 63.1 to 316 nM. Moreover, the IC50 was 7.94 to 15.8 nM in test [2]; 3.16 to 10 µM in test [3]; 7.94 to 15.8 nM in test [4]; 3.16 to 10 µM in test [5]; 7.94 to 15.8 nM in test [6]; 10 to 51.3 µM in test [7]. Also, the “cIAP1 BIR3 vs BIR2 separation window” value in test [2] is “+++ (10,000>FS>1,000)”. Moreover, in test [4], the “cIAP2 BIR3 vs BIR2 separation window” value is “+++ (10,000>FS>1,000)”. In test [6], the “XIAP BIR3 vs BIR2 separation window” value is “++++ (FS>10,000)”.

Regarding `C[C@@H]1CN(CC(=O)N2CC(C)(C)c3[nH]c(=O)c(Cc4ccc(F)cc4)cc32)[C@@H](CN2CCC(CC(=O)N(C)Cc3ccc(CN(C)C(=O)CC4CCN(C[C@H]5CN[C@H](C)CN5CC(=O)N5CC(C)(C)c6[nH]c(=O)c(Cc7ccc(F)cc7)cc65)CC4)cc3)CC2)CN1` [Example 106, N,N′-(1,4-phenylenebis(methylene))bis(2-(1-(((2R,5R)-1-(2-(6-(4-fluorobenzyl)-3,3-dimethyl-5-oxo-2,3,4,5-tetrahydro-1H-pyrrolo[3,2-b]pyridin-1-yl)-2-oxoethyl)-5-methylpiperazin-2-yl)methyl)piperidin-4-yl)-N-methylacetamide)], the EC50 in test [1] is 12.6 to 63.1 nM. In addition, the IC50 in test [2] is 1.38 to 7.94 nM; in test [3] it was 1 to 3.16 µM; in test [4], 1.38 to 7.94 nM; in test [5] it was 1 to 3.16 µM; in test [6], 1.38 to 7.94 nM; in test [7], 10 to 51.3 µM. The “cIAP1 BIR3 vs BIR2 separation window” value in test [2] is on record as “+++ (10,000>FS>1,000)”. In addition, in test [4], the “cIAP2 BIR3 vs BIR2 separation window” value is on record as “+++ (10,000>FS>1,000)”. Moreover, the “XIAP BIR3 vs BIR2 separation window” value in test [6] is “++++ (FS>10,000)”.

With `C[C@@H]1CN(CC(=O)N2CC(C)(C)c3[nH]c(=O)c(Cc4ccc(F)cc4)cc32)[C@@H](CN2CCC(COc3cccc(OCC4CCN(C[C@H]5CN[C@H](C)CN5CC(=O)N5CC(C)(C)c6[nH]c(=O)c(Cc7ccc(F)cc7)cc65)CC4)c3)CC2)CN1` [Example 107, 1,1′-(2,2′-((3R,3′R,6R,6′R)-((((1,3-phenylenebis(oxy))bis(methylene))bis(piperidine-4,1-diyl))bis(methylene))bis(3-methylpiperazine-6,1-diyl))bis(acetyl))bis(6-(4-fluorobenzyl)-3,3-dimethyl-1,2,3,4-tetrahydro-5H-pyrrolo[3,2-b]pyridin-5-one)], in test [1], the EC50 is 12.6 to 63.1 nM. The IC50 in test [2] was 7.94 to 15.8 nM; in test [3], 1 to 3.16 µM; in test [4] it was 1.38 to 7.94 nM; in test [5] it was 10 to 51.3 µM; in test [6], 7.94 to 15.8 nM; in test [7], 10 to 51.3 µM. Besides, the “cIAP1 BIR3 vs BIR2 separation window” value in test [2] is listed as “+++ (10,000>FS>1,000)”. Besides, the “cIAP2 BIR3 vs BIR2 separation window” value in test [4] is reported as “++++ (FS>10,000)”. Besides, in test [6], the “XIAP BIR3 vs BIR2 separation window” value is “++++ (FS>10,000)”.

Turning to `C[C@@H]1CN(CC(=O)N2CC(C)(C)c3[nH]c(=O)c(Cc4ccc(F)cc4)cc32)[C@@H](CN2CCO[C@@H](C(=O)NCc3ccc(CNC(=O)[C@H]4CN(C[C@H]5CN[C@H](C)CN5CC(=O)N5CC(C)(C)c6[nH]c(=O)c(Cc7ccc(F)cc7)cc65)CCO4)cc3)C2)CN1` [Example 111, (2R,2′R)-N,N′-(1,4-phenylenebis(methylene))bis(4-(((2R,5R)-1-(2-(6-(4-fluorobenzyl)-3,3-dimethyl-5-oxo-2,3,4,5-tetrahydro-1H-pyrrolo[3,2-b]pyridin-1-yl)-2-oxoethyl)-5-methylpiperazin-2-yl)methyl)morpholine-2-carboxamide)], the EC50 in test [1] is 12.6 to 63.1 nM. Also, the IC50 in test [2] is 7.94 to 15.8 nM; in test [3], 3.16 to 10 µM; in test [4], 7.94 to 15.8 nM; in test [5], 3.16 to 10 µM; in test [6], 31.6 to 501 nM; in test [7] it was 10 to 51.3 µM. Moreover, the “cIAP1 BIR3 vs BIR2 separation window” value in test [2] is on record as “+++ (10,000>FS>1,000)”. Besides, in test [4], the “cIAP2 BIR3 vs BIR2 separation window” value is “+++ (10,000>FS>1,000)”. Also, the “XIAP BIR3 vs BIR2 separation window” value in test [6] was “+++ (10,000>FS>1,000)”.

For the compound `C[C@@H]1CN(CC(=O)N2CC(C)(C)c3[nH]c(=O)c(Cc4ccc(F)cc4)cc32)[C@@H](CN2CCO[C@@H](COc3cccc(OC[C@H]4CN(C[C@H]5CN[C@H](C)CN5CC(=O)N5CC(C)(C)c6[nH]c(=O)c(Cc7ccc(F)cc7)cc65)CCO4)c3)C2)CN1` [Example 112, 1,1′-(2,2′-((3R,3′R,6R,6′R)-(((2R,2′R)-((1,3-phenylenebis(oxy))bis(methylene))bis(morpholine-2,4-diyl))bis(methylene))bis(3-methylpiperazine-6,1-diyl))bis(acetyl))bis(6-(4-fluorobenzyl)-3,3-dimethyl-1,2,3,4-tetrahydro-5H-pyrrolo[3,2-b]pyridin-5-one)], the EC50 in test [1] was 12.6 to 63.1 nM. Also, the IC50 is 7.94 to 15.8 nM in test [2]; 3.16 to 10 µM in test [3]; 7.94 to 15.8 nM in test [4]; 1 to 3.16 µM in test [5]; 15.8 to 31.6 nM in test [6]; 10 to 51.3 µM in test [7]. Further, the “cIAP1 BIR3 vs BIR2 separation window” value in test [2] is given as “+++ (10,000>FS>1,000)”. The “cIAP2 BIR3 vs BIR2 separation window” value in test [4] is “+++ (10,000>FS>1,000)”. Besides, the “XIAP BIR3 vs BIR2 separation window” value in test [6] is “+++ (10,000>FS>1,000)”.

Turning to `C[C@@H]1CN(CC(=O)N2CC(C)(C)c3[nH]c(=O)c(Cc4ccc(F)cc4)cc32)[C@@H](CN2CCO[C@@H](COCCCCOC[C@H]3CN(C[C@H]4CN[C@H](C)CN4CC(=O)N4CC(C)(C)c5[nH]c(=O)c(Cc6ccc(F)cc6)cc54)CCO3)C2)CN1` [Example 113, 1,1′-(2,2′-((3R,3′R,6R,6′R)-(((2R,2′R)-((butane-1,4-diylbis(oxy))bis(methylene))bis(morpholine-2,4-diyl))bis(methylene))bis(3-methylpiperazine-6,1-diyl))bis(acetyl))bis(6-(4-fluorobenzyl)-3,3-dimethyl-1,2,3,4-tetrahydro-5H-pyrrolo[3,2-b]pyridin-5-one)], the EC50 in test [1] is 0.49 to 12.6 nM. Besides, the IC50 in test [2] is 7.94 to 15.8 nM; in test [3] it was 3.16 to 10 µM; in test [4], 7.94 to 15.8 nM; in test [5], 3.16 to 10 µM; in test [6], 15.8 to 31.6 nM; in test [7], 10 to 51.3 µM. Further, the “cIAP1 BIR3 vs BIR2 separation window” value in test [2] is listed as “+++ (10,000>FS>1,000)”. The “cIAP2 BIR3 vs BIR2 separation window” value in test [4] is on record as “+++ (10,000>FS>1,000)”. Moreover, the “XIAP BIR3 vs BIR2 separation window” value in test [6] was “++++ (FS>10,000)”.

On to `C[C@@H]1CN(CC(=O)N2CC(C)(C)c3c2cc(Cc2ccc(F)cc2)c(=O)n3C)[C@@H](CN2CCO[C@H](COc3ccc(Cc4ccc(OC[C@@H]5CN(C[C@H]6CN[C@H](C)CN6CC(=O)N6CC(C)(C)c7c6cc(Cc6ccc(F)cc6)c(=O)n7C)CCO5)cc4)cc3)C2)CN1` [Example 115, 1,1′-(2,2′-((3R,3′R,6R,6′R)-(((2S,2'S)-(((methylenebis(4,1-phenylene))bis(oxy))bis(methylene))bis(morpholine-2,4-diyl))bis(methylene))bis(3-methylpiperazine-6,1-diyl))bis(acetyl))bis(6-(4-fluorobenzyl)-3,3,4-trimethyl-1,2,3,4-tetrahydro-5H-pyrrolo[3,2-b]pyridin-5-one)], for which the EC50 in test [1] is 63.1 to 316 nM. Moreover, the IC50 in test [2] was 31.6 to 501 nM; in test [3], 3.16 to 10 µM; in test [4], 31.6 to 501 nM; in test [5], 10 to 51.3 µM; in test [6] it was 31.6 to 501 nM. In addition, in test [2], the “cIAP1 BIR3 vs BIR2 separation window” value was “+++ (10,000>FS>1,000)”. Besides, the “cIAP2 BIR3 vs BIR2 separation window” value in test [4] is recorded as “+++ (10,000>FS>1,000)”. Further, in test [6], the “XIAP BIR3 vs BIR2 separation window” value is reported as “++ (1,000>FS>100)”. The “XIAP BIR2 (pIC50)” value in test [7] is “++ (5.00<pIC50<=5.50)”.

(Values after patent publication US20250326771A1, “PIPERAZINE DERIVATIVES USEFUL IN HIV THERAPY” (VIIV HEALTHCARE COMPANY, priority 2022, published 2025).)
